Series [1] deals with T1, CFTR (Homo sapiens, UniProt P13569). As to the kind of experiment: Membrane Potential Dye, Enteroid Assay B. The following applies: Table 9. The series is classed as cell-based. The procedure, abridged:
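Enteroid cells loaded 25 min at room temperature with 20 μM methyl oxonol plus 30 μM CaCCinh-A01 and 30 μM Chicago Sky Blue, then switched to chloride-free gluconate buffer. Chloride transport was started by chloride-free stimulation solution, with fluorescence read for 15 min.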

The conditions of series [2]: amide bond, 13-membered ring, DMF, 25.0 °C.
In series [3] the target is T2, CFTR (Homo sapiens, UniProt P13569, DEL508-508).
T2 construct: endogenous in cells; host or cells: primary human bronchial epithelial cells from CF subjects (F508del/MF)
T2 sequence (P13569 with tags, fused parts or gaps DEL508-508): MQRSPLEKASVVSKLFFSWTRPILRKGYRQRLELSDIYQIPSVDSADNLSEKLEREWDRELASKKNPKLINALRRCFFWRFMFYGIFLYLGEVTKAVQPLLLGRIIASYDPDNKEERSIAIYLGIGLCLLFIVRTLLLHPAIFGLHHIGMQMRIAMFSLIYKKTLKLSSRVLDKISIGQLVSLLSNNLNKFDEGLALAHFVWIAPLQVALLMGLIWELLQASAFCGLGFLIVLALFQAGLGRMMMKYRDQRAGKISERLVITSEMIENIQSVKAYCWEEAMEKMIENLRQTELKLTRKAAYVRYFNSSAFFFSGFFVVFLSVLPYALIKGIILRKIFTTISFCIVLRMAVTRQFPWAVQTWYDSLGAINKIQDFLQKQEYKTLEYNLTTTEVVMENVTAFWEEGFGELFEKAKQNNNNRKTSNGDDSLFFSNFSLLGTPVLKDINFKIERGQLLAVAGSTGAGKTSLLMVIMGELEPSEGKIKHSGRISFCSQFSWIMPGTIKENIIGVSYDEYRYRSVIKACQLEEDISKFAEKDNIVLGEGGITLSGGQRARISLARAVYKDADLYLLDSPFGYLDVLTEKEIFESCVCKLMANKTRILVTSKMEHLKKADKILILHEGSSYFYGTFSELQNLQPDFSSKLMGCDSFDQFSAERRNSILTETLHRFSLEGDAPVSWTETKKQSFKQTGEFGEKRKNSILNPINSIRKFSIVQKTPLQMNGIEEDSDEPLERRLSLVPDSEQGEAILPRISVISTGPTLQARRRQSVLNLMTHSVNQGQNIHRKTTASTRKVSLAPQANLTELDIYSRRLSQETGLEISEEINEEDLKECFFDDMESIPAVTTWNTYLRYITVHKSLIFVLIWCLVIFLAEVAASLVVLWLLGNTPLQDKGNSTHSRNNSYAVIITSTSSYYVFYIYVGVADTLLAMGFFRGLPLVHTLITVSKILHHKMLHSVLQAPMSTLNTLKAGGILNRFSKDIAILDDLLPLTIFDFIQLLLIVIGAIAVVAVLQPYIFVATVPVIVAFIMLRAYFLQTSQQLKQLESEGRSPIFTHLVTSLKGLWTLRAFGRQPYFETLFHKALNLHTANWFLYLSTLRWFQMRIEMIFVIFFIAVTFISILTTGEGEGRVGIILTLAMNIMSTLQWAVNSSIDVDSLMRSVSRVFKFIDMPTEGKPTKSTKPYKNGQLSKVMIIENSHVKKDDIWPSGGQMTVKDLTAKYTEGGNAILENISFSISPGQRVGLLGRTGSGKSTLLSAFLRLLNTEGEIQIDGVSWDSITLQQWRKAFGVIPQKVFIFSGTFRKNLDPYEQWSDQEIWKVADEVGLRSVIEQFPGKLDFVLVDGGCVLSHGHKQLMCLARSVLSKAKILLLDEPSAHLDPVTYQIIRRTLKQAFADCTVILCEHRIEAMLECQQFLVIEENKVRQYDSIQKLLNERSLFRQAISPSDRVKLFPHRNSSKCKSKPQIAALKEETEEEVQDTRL
The series can be described thus: HBE assay: Ussing chamber assay of CFTR-mediated short-circuit currents in F508del/MF-HBE cells. The series is classed as cell-based. The following applies: 20% human serum; for HBE Activity at 10 μM (%): single fixed concentration of 10 μM with 1 μM Ivacaftor; for HBE Activity at 10 μM (%) / Emax: 18-24 hours, compared to known Vertex corrector with 18 μM Tezacaftor and 1 μM Ivacaftor; for EC50: range of concentrations in combination with 1 μM Ivacaftor, 18-24 hours at 37° C.; for Emax: with 1 μM Ivacaftor, read-out: HBE Max Activity (%). On the procedure:
1. Ussing Chamber Assay of CFTR-Mediated Short-Circuit Currents
Ussing chamber experiments were performed using human bronchial epithelial (HBE) cells derived from CF subjects heterozygous for F508del and a minimal function CFTR mutation (F508del/MF-HBE) and cultured as previously described (Neuberger T, Burton B, Clark H, Van Goor F Methods Mol Biol 2011:741:39-54). After four days the apical media was removed, and the cells were grown at an air liquid interface for >14 days prior to use.
To isolate the CFTR-mediated short-circuit (Isc) current, F508del/MF-HBE grown on Costar® Snapwell™ cell culture inserts were mounted in an Ussing chamber and the transepithelial Isc was measured under voltage-clamp recording conditions (Vhold=0 mV) at 37° C. The basolateral solution contained (in mM) 145 NaCl, 0.83 K2HPO4, 3.3 KH2P04, 1.2 MgCl2, 1.2 CaCl2), 10 Glucose, 10 HEPES (pH adjusted to 7.4 with NaOH) and the apical solution contained (in mM) 145 NaGluconate, 1.2 MgCl2, 1.2 CaCl2), 10 glucose, 10 HEPES (pH adjusted to 7.4 with NaOH) and 30 μM amiloride to block the epithelial sodium channel. Forskolin (20 μM) was added to the apical surface to activate CFTR, followed by apical addition of a CFTR inhibitor cocktail consisting of BPO, GlyH-101, and CFTR inhibitor 172 (each at 20 μM final assay concentration) to specifically isolate CFTR currents. The CFTR-mediated Isc (ρA/cm^2) for each condition was determined from the peak forskolin response to the steady-state current following inhibition.
2. Identification of Corrector Compounds
The activity of the CFTR corrector compounds on the CFTR-mediated Isc was determined in Ussing chamber studies as described above. The F508del/MF-HBE cell cultures were either incubated with the corrector compounds at a range of concentrations in combination with 1 μM Ivacaftor or were incubated with the corrector compounds at a single fixed concentration of 10 μM in combination with 1 μM Ivacaftor for 18-24 hours at 37° C. and in the presence of 20% human serum. The concentration of corrector compounds with 1 μM Ivacaftor during the 18-24 hours incubations was kept constant throughout the Ussing chamber measurement of the CFTR-mediated Isc to ensure compounds were present throughout the entire experiment.

The target in series [4] is T1, CFTR. The series can be described thus: Membrane Potential Dye, Enteroid Assay A. The following applies: for EC50: read-out: Ent. A EC50. The series is classed as cell-based. The method, boiled down: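 Signal is reported as % Activity relative to a triple CFTR modulator control (3 μM + 3 μM + 300 nM acute). Read-out: membrane potential fluorescence (20 μM methyl oxonol) monitored for 15 min after chloride-free stimulation. Dye loading took 25 min at room temperature in Bath 1 buffer containing CaCC blockers.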

Structures are written as SMILES. Read-outs that look alike come from different tables or passages of the source. Where only a bound is given, the exact number is not on record here.

T1 sequence (P13569 with tags, fused parts or gaps DEL508-508): as above

Molecule `CC(C)C[C@@H]1COc2cc(Cl)nc(n2)NS(=O)(=O)c2cccc(c2)C(=O)N1` returned a ring closure, isolated yield (from CC(C)C[C@@H](N)COc1cc(Cl)nc(NS(=O)(=O)c2cccc(C(=O)O)c2)n1, amide bond, 13-membered ring, HATU/Et3N, DMF, 29.1 mM, -5.0 °C, 0.17 h) of 30%.

With `COCN1c2nc3cc(n2)-c2ccccc2/C=C/CCCCCC[C@H](CO3)NC(=O)c2cccc(c2)S1(=O)=O`, for the setting “from C=CCCCCCC[C@@H]1COc2cc(-c3ccccc3C=C)nc(n2)N(COC)S(=O)(=O)c2cccc(c2)C(=O)N1, rcm bond, 16-membered ring, Grubbs II, toluene, 16.4 mM, 100.0 °C, 1.5 h”, the ring closure, isolated yield was 80%.

Under “from Cc1cccc(C)c1-c1cc(OC(CN)c2ccc(C3(C(F)(F)F)CC3)cc2)nc(NS(=O)(=O)c2cccc(C(=O)O)c2)n1, amide bond, 13-membered ring, HATU/NaOtBu, THF/DMF, 67.1 mM, 25.0 °C, 0.75 h, 2 steps”, `Cc1cccc(C)c1-c1cc2nc(n1)NS(=O)(=O)c1cccc(c1)C(=O)NCC(c1ccc(C3(C(F)(F)F)CC3)cc1)O2` (stereo not drawn) had a ring closure, isolated yield of 26%.

Consider `O=S1(=O)Nc2nc(Cl)cc(n2)-c2ccccc2CCCNc2cccc1c2`, for which the ring closure, isolated yield (from CC1(C)OB(c2ccccc2CCCNc2cccc(S(=O)(=O)Nc3nc(Cl)cc(Cl)n3)c2)OC1(C)C, cc_pd bond, 14-membered ring, Pd(PPh3)4/K2CO3, 1,4-dioxane/water, 11.2 mM, 90.0 °C, 5.0 h) was found to be 19%.

On to `C=CCCCCCC[C@@H]1COc2cc(-c3ccccc3C=C)nc(n2)NS(=O)(=O)c2cccc(c2)C(=O)N1` [Compound 35, (11R)-11-Oct-7-enyl-2,2-dioxo-6-(2-vinylphenyl)-9-oxa-2λ^6-thia-3,5,12,19-tetrazatricyclo[12.3.1.14,8]nonadeca-1(18),4,6,8(19),14,16-hexaen-13-one], for which the “Ent. B Max Activity” value on CFTR [1] is listed as “++ (++ is 30-60%)”. Moreover, at CFTR [1] (read-out: Ent. B EC50), the half-maximal effective concentration (EC50) (in general, the concentration that produces a half-maximal response) was less than 1000 nM. The molecule further showed a ring closure, isolated yield (from C=CCCCCCC[C@@H](N)COc1cc(-c2ccccc2C=C)nc(NS(=O)(=O)c2cccc(C(=O)O)c2)n1, amide bond, 13-membered ring, HATU/NaOtBu, DMF/THF, 19.4 mM, 0.0 °C, 0.67 h, 2 steps) of 35%.

`Cc1cccc(C)c1-c1cc2nc(n1)NS(=O)(=O)c1cccc(c1)C(=O)N[C@H](CC1CC3(CCC3)C1)CO2` [Compound 49, (11R)-6-(2,6-Dimethylphenyl)-2,2-dioxo-11-(spiro[3.3]heptan-2-ylmethyl)-9-oxa-2λ^6-thia-3,5,12,19-tetrazatricyclo[12.3.1.14,8]nonadeca-1(18),4(19),5,7,14,16-hexaen-13-one] gave a ring closure, yield after HPLC in series [2] (from Cc1cccc(C)c1-c1cc(OC[C@H](N)CC2CC3(CCC3)C2)nc(NS(=O)(=O)c2cccc(C(=O)O)c2)n1, CDMT/NMM, 32.4 mM, 1.5 h) of 49%. Also, at CFTR [3], the “HBE Activity at 10 μM (%)” value was “+++ (+++ is >60%)”.

In series [2] (from Cc1cccc(C)c1-c1cc(OCC(N)C2CC3(CCC3)C2)nc(NS(=O)(=O)c2cccc(C(=O)O)c2)n1, CDMT/NMM, 46.6 mM, 1.5 h), `Cc1cccc(C)c1-c1cc2nc(n1)NS(=O)(=O)c1cccc(c1)C(=O)NC(C1CC3(CCC3)C1)CO2` (stereo not drawn) [Compound 50, 6-(2,6-Dimethylphenyl)-2,2-dioxo-11-spiro[3.3]heptan-2-yl-9-oxa-2λ^6-thia-3,5,12,19-tetrazatricyclo[12.3.1.14,8]nonadeca-1(18),4(19),5,7,14,16-hexaen-13-one] displayed a ring closure, yield after HPLC of 25%. Further, at CFTR [3], the concentration giving a half-maximal response (EC50) is less than 1000 nM and the Emax is greater than 60%.

`Cc1ccc(C)c(-c2cc3nc(n2)NS(=O)(=O)c2cccc(c2)C(=O)N[C@H](CC(C)(C)C)CO3)c1C` [Compound 51, (11R)-11-(2,2-Dimethylpropyl)-6-(2,3,6-trimethylphenyl)-9-oxa-2λ^6-thia-3,5,12,19-tetraazatricyclo[12.3.1.14,8]nonadeca-1(18),4,6,8(19),14,16-hexaene-2,2,13-trione] returned a ring closure, yield after HPLC in series [2] (from Cc1ccc(C)c(-c2cc(OC[C@H](N)CC(C)(C)C)nc(NS(=O)(=O)c3cccc(C(=O)O)c3)n2)c1C, CDMT/NMM, 23.7 mM, 16.0 h) of 31%. Also, at CFTR [3], the 50% effective concentration (EC50) is less than 1000 nM and the Emax is greater than 60%.

Take `Cc1ccc2ccccc2c1-c1cc2nc(n1)NS(=O)(=O)c1cccc(c1)C(=O)N[C@H](CC(C)(C)C)CO2` [Compound 52, (11R)-11-(2,2-Dimethylpropyl)-6-(2-methyl-1-naphthyl)-2,2-dioxo-9-oxa-2λ^6-thia-3,5,12,19-tetrazatricyclo[12.3.1.14,8]nonadeca-1(18),4(19),5,7,14,16-hexaen-13-one]: the ring closure, yield after HPLC in series [2] (from Cc1ccc2ccccc2c1-c1cc(OC[C@H](N)CC(C)(C)C)nc(NS(=O)(=O)c2cccc(C(=O)O)c2)n1, HATU/TEA, 44.8 mM, 2.0 h) is 25%. In addition, on CFTR [3], the EC50 was less than 1000 nM and the Emax was greater than 60%.

As for `Cc1cccc(C)c1-c1cc2nc(n1)NS(=O)(=O)c1cccc(c1)C(=O)N[C@@H]1CN(C(=O)OC(C)(C)C)CC[C@H]1O2` [Compound 59, tert-Butyl (3R,8R)-20-(2,6-dimethylphenyl)-10,16,16-trioxo-2-oxa-16λ^6-thia-6,9,17,19,22-pentaazatetracyclo[16.3.1.111,15.03,8]tricosa-1(21),11(23),12,14,18(22),19-hexaene-6-carboxylate], on CFTR [4] (Table 9), the “Ent. A Max Activity” value is reported as “+++ (+++ is >60%)” and the EC50 is less than 1000 nM. Where the note is “from Cc1cccc(C)c1-c1cc(O[C@@H]2CCN(C(=O)OC(C)(C)C)C[C@H]2N)nc(NS(=O)(=O)c2cccc(C(=O)O)c2)n1, amide bond, 13-membered ring, COMU/DIEA, DMF, 19.4 mM, 19.0 h”, the ring closure, isolated yield turned out to be 34%.

With `Cc1cccc(C)c1-c1cc2nc(n1)NS(=O)(=O)c1cccc(c1)C(=O)NCC1(CCN(C(=O)OC(C)(C)C)CC1)CO2` [Compound 81, tert-Butyl 6-(2,6-dimethylphenyl)-2,2,14-trioxo-spiro[9-oxa-2λ^6-thia-3,5,13,20-tetrazatricyclo[13.3.1.14,8]icosa-1(19),4(20),5,7,15,17-hexaene-11,4′-piperidine]-1′-carboxylate], at CFTR [4] (Enteroid Assay A), the EC50 lay in the range of 1000 to 3000 nM. Moreover, the ring closure, isolated yield (from Cc1cccc(C)c1-c1cc(Cl)nc(NS(=O)(=O)c2cccc(C(=O)NCC3(CO)CCN(C(=O)OC(C)(C)C)CC3)c2)n1, snar bond, 14-membered ring, NaH, THF, 5.0 mM, 25.0 °C, 3.0 h) was determined as 66%.

On to `Cc1cccc(C)c1-c1cc2nc(n1)NS(=O)(=O)c1cccc(c1)C(=O)N[C@@H](CC(C)(C)C)CO2` [Compound 121], for which the “HBE Activity at 10 μM (%)” value on CFTR [3] is recorded as “+ (+ is <30%)”.

`Cc1cccc(C)c1-c1cc2nc(n1)NS(=O)(=O)c1cccc(c1)C(=O)NC(C(CC(C)C)c1ccc(C(C)(C)C)cc1)CO2` (stereo not drawn) [Compound 207]: on CFTR [3], the “HBE Activity at 10 μM (%)” value is given as “+ (+ is <30%)”.

Consider `Cc1cccc(C)c1-c1cc2nc(n1)NS(=O)(=O)c1cccc(c1)C(=O)NC(C(CC(C)C)c1ccc(C(C)(C)C)cc1)CO2` (stereo not drawn) [Compound 208], for which the “HBE Activity at 10 μM (%)” value on CFTR [3] was “+++ (+++ is >60%)”.

Take `Cc1cccc(C)c1-c1cc2nc(n1)NS(=O)(=O)c1cccc(c1)C(=O)NC(C(CC(C)C)c1cccc(C(C)(C)C)c1)CO2` (stereo not drawn) [Compound 209]: the 50% effective concentration (EC50) on CFTR [3] was less than 1000 nM.

Turning to `Cc1cccc(C)c1-c1cc2nc(n1)NS(=O)(=O)c1cccc(c1)C(=O)NC(C(CC(C)C)c1ccc(C(C)(C)C)cc1)CO2` (stereo not drawn) [Compound 210], at CFTR [3], the EC50 was less than 1000 nM and the Emax is 30 to 60%.

For the molecule `Cc1cccc(C)c1-c1cc2nc(n1)NS(=O)(=O)c1cccc(c1)C(=O)NC(C(CC(C)C)c1cccc(C(C)(C)C)c1)CO2` (stereo not drawn) [Compound 211], at CFTR [3], the half-maximal effective concentration (EC50) is less than 1000 nM and the Emax was greater than 60%.

Take `Cc1cccc(CC2CCCCC2)c1-c1cc2nc(n1)NS(=O)(=O)c1cccc(c1)C(=O)N[C@H](CC(C)(C)C)CO2` [Compound 299]: at CFTR [3], the concentration for a half-maximal effect (EC50) is less than 1000 nM and the Emax was greater than 60%.

The values are drawn from patent US20230382924A1, “MODULATORS OF CYSTIC FIBROSIS TRANSMEMBRANE CONDUCTANCE REGULATOR” (VERTEX PHARMACEUTICALS INCORPORATED, priority 2020, published 2023).
